One data set relates to A2780. Put plainly: cells. The conditions noted are these: Homo sapiens, A2780, 72 h.
Data set [1] deals with Nicotinamide phosphoribosyltransferase (Mus musculus, UniProt Q99KQ4). The data set can be described thus: Inhibition of N-terminal His-tagged mouse NAMPT transformed in Escherichia coli Rosetta cells.
In data set [2] the test system is HCT-116. Put plainly: cells. The conditions noted are these: Homo sapiens, HCT-116, 48 h.
Data set [3] deals with Nicotinamide phosphoribosyltransferase (Homo sapiens, UniProt P43490). Put plainly: Inhibition of NAMPT (unknown origin) using NAM and PRPP as substrates incubated for 2 hrs in presence of ATP by fluorimetric plate reader assay.
Data set [4] in a line: Cmax in Sprague-Dawley rat plasma at 60 mg/kg, ip measured up to 48 hrs by LC-MS/MS analysis. Type of data set: ADME, organism-based.
Data set [5] in a line: Cmax in ICR mouse at 10 mg/kg, iv by LC-MS/MS analysis. The class given is ADME, organism-based. As to conditions: in vivo.
The subject of data set [6] is HCT-116. Put plainly: Antitumor activity against human HCT-116 cells assessed as decrease in intracellular NAD level at 30 uM measured after 12 to 24 hrs by absorbance based assay. Type of data set: functional. Also noted: scale not given: the % may be the effect or the level left. The conditions noted are these: time 12-24 hrs.

Where only a bound is given, the exact number is not on record here.

Chain of Nicotinamide phosphoribosyltransferase (Homo sapiens, UniProt P43490) (P43490 whole entry): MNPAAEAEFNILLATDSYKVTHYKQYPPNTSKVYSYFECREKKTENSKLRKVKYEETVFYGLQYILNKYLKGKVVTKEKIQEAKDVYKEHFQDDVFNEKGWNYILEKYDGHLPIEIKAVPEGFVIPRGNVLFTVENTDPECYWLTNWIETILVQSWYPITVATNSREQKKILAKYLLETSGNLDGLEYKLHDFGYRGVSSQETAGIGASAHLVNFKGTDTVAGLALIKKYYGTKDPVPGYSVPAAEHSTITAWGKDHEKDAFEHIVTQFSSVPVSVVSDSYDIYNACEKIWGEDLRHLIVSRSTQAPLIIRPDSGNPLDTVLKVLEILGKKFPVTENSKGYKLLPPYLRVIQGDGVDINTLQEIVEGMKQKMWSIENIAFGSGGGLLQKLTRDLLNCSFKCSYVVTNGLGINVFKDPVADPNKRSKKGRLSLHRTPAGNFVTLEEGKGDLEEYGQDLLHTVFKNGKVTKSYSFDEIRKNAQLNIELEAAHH
Chain of Nicotinamide phosphoribosyltransferase (Mus musculus, UniProt Q99KQ4) (Q99KQ4 whole entry): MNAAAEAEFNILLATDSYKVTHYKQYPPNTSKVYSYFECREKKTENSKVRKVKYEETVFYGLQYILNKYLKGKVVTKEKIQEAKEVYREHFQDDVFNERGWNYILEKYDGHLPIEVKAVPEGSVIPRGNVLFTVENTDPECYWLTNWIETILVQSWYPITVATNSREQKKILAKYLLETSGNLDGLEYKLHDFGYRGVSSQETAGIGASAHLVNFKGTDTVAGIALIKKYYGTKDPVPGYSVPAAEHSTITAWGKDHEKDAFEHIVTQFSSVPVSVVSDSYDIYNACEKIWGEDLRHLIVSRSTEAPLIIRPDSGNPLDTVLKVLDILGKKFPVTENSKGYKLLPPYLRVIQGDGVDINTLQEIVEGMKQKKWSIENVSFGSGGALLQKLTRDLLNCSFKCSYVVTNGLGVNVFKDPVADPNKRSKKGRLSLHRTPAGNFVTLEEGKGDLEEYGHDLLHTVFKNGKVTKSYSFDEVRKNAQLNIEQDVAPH

Consider `O=S(=O)(c1ccc(NC(=S)NCc2ccncc2)cc1)N1CCCCC1`, for which the IC50 (in general, the concentration that gives 50% inhibition) with A2780 is > 10 nM. The same measure, in the same setting: next, `CCOC(=O)c1ccc(NC(=O)NCc2ccncc2)cc1`: 320 nM. The compound `CCOC(=O)c1ccc(NC(=S)NCc2ccncc2)cc1` returned an IC50 in the data set on A2780 of 1000 nM. The same measure, in the same setting: to `CCN(CC)S(=O)(=O)c1ccc(NC(=O)NCc2ccncc2)cc1` belongs 364 nM; to `Cn1nccc1-c1nc2ccc(NC(=O)NCc3ccncc3)cn2n1`, 160 nM. `CCN(CC)C(=O)c1noc2cc(NC(=O)NCc3cnco3)ccc12` had a 50% inhibitory concentration (IC50) in data set [1] of 1490 nM. `C#CCN(Cc1cc2c(=O)n(C)c(CN3CCN(CCN)CC3)nc2cc1Cl)c1ccc(C(=O)NCc2cccnc2)cc1` displayed an IC50 in the data set on HCT-116 [2] of 0.68 nM. Consider `O=C(NCc1ccncc1)Nc1ccc(S(=O)(=O)N2C[C@H]3CC[C@@H](C2)O3)cc1`, for which the half-maximal inhibitory concentration (IC50) in data set [3] worked out at 279 nM.

In the case of `O=C(/C=C/c1cccnc1)NCCCCC1CCN(C(=O)c2ccccc2)CC1` [DAPORINAD], the Cmax – broadly, the maximum level reached in the sampled fluid or tissue – in data set [4] turned out to be 6.7 µM; in data set [5] it was 14 µM. For `Nc1cc(F)ccc1NC(=O)c1ccc(CNC(=O)/C=C/c2cccnc2)cc1` [TUCIDINOSTAT], the Activity in the data set with HCT-116 [6] was determined as 50%.
